According to patent US9956204B2, “Composition for exterminating scuticociliates in fish including mebendazole” (NATIONAL INSTITUTE OF FISHERIES SCIENCE, priority 2016, dated 2018):

Assays:
scuticociliates [1] = assay: Scuticociliates extermination effect of candidate substances in MEM medium; format: cell-based; conditions: MEM medium
Description: CHSE-214 cell line into which scuticociliates were inoculated was cultured in advance. The CHSE-214 cell line was cultured in an incubator using an MEM medium at 22° C. Scuticociliates inoculated into the cell line proliferated for 3 days by which the number reaches to be capable of analyzing in vitro anti-scuticociliates effect. Scuticociliates that feed on the cell line and sufficiently grow were mixed with the candidate substance and the activity of scuticociliates was measured.
In order to analyze the antiparasitic activity of the above 19 types of candidate substances of scuticociliates extermination drugs, scuticociliates were cultured for 3 days, and 100 μl (1×10^5) was dispensed into each well of 96 wells. The candidate substances were diluted by each concentration and the final volume was dispensed into 100 μl. Thereafter, the two were mixed and finally made into 200 μl.

scuticociliates [2] = assay: Scuticociliates extermination effect of candidate substances in seawater medium; format: cell-based; conditions: seawater medium, 4 hour
Description: For this, scuticociliates were cultured in CHSE-214 cell line (using MEM medium), and then scuticociliates were collected and centrifuged with sterilized seawater or artificial seawater (20‰) to replace them with a seawater medium. Each of 100 μl (1×10^5) was dispensed into each well of 96 wells, followed by further culture for 30 minutes. The candidate substances diluted in seawater to have a volume of 100 μl per each concentration were mixed with scuticociliates to have the final volume of 200 μl and cultured for 4 hour.

| SMILES | Survival or Death of scuticociliates (activity and shape, microscope) (scuticociliates [1]; Dosage 500 ppm) | Survival or Death of scuticociliates (activity and shape, microscope) (scuticociliates [1]; Dosage 1000 ppm) | Survival or Death of scuticociliates (activity and shape, microscope) (scuticociliates [1]; Dosage 1500 ppm) | Survival or Death of scuticociliates (activity and shape, microscope) (scuticociliates [1]; Dosage 2000 ppm) | Survival or Death of scuticociliates (activity and shape, microscope) (scuticociliates [1]; Dosage 2500 ppm) | Survival or Death of scuticociliates (activity and shape, microscope) (scuticociliates [1]; Dosage 3000 ppm) | Survival or Death of scuticociliates (activity and shape, microscope) (scuticociliates [1]; Dosage 3500 ppm) | Survival or Death of scuticociliates (activity and shape, microscope) (scuticociliates [1]; Dosage 4000 ppm) | Survival or Death of scuticociliates (activity and shape, microscope) (scuticociliates [2]; Dosage 500 ppm) | Survival or Death of scuticociliates (activity and shape, microscope) (scuticociliates [2]; Dosage 1000 ppm) | Survival or Death of scuticociliates (activity and shape, microscope) (scuticociliates [2]; Dosage 1500 ppm) | Survival or Death of scuticociliates (activity and shape, microscope) (scuticociliates [2]; Dosage 2000 ppm) | Survival or Death of scuticociliates (activity and shape, microscope) (scuticociliates [2]; Dosage 2500 ppm) | Survival or Death of scuticociliates (activity and shape, microscope) (scuticociliates [2]; Dosage 3000 ppm) | Survival or Death of scuticociliates (activity and shape, microscope) (scuticociliates [2]; Dosage 3500 ppm) | Survival or Death of scuticociliates (activity and shape, microscope) (scuticociliates [2]; Dosage 4000 ppm) | Survival or Death of scuticociliates (activity and shape, microscope) (scuticociliates [1]; Dosage 200 ppm) | Survival or Death of scuticociliates (activity and shape, microscope) (scuticociliates [1]; Dosage 600 ppm) | Survival or Death of scuticociliates (activity and shape, microscope) (scuticociliates [1]; Dosage 700 ppm) | Survival or Death of scuticociliates (activity and shape, microscope) (scuticociliates [1]; Dosage 800 ppm) | other results |
| --- | --- | --- | --- | --- | --- | --- | --- | --- | --- | --- | --- | --- | --- | --- | --- | --- | --- | --- | --- | --- | --- |
| c1ccc([C@H]2CN3CCSC3=N2)cc1 [Levamisol] | Survival | Survival | Survival | Survival | Survival | Survival | Survival | Survival | Survival | Survival | Survival | Survival | Survival | Survival | Survival | Survival |  |  |  |  |  |
| COP(=O)(OC)C(O)C(Cl)(Cl)Cl (stereo not shown) [Trichlorfon] | Survival | Death |  |  |  |  |  |  | Survival |  |  |  |  |  |  |  | Survival | Δ | Death | Death | Survival or Death of scuticociliates (activity and shape, microscope) (scuticociliates [1]; Dosage 900 ppm): Death; Survival or Death of scuticociliates (activity and shape, microscope) (scuticociliates [2]; Dosage 10 ppm): Survival; Survival or Death of scuticociliates (activity and shape, microscope) (scuticociliates [2]; Dosage 50 ppm): Survival; Survival or Death of scuticociliates (activity and shape, microscope) (scuticociliates [2]; Dosage 100 ppm): Survival; Survival or Death of scuticociliates (activity and shape, microscope) (scuticociliates [2]; Dosage 200 ppm): Survival; Survival or Death of scuticociliates (activity and shape, microscope) (scuticociliates [2]; Dosage 600 ppm): Death; Survival or Death of scuticociliates (activity and shape, microscope) (scuticociliates [2]; Dosage 700 ppm): Death |
| COC(=O)Nc1nc2ccc(Sc3ccccc3)cc2[nH]1 [Fenbendazole] | Survival | Death |  |  |  |  |  |  | Survival | Death |  |  |  |  |  |  | Survival | Survival | Survival | Δ | Survival or Death of scuticociliates (activity and shape, microscope) (scuticociliates [1]; Dosage 10 ppm): Survival; Survival or Death of scuticociliates (activity and shape, microscope) (scuticociliates [1]; Dosage 50 ppm): Survival; Survival or Death of scuticociliates (activity and shape, microscope) (scuticociliates [1]; Dosage 100 ppm): Survival; Survival or Death of scuticociliates (activity and shape, microscope) (scuticociliates [1]; Dosage 300 ppm): Survival; Survival or Death of scuticociliates (activity and shape, microscope) (scuticociliates [1]; Dosage 400 ppm): Survival; Survival or Death of scuticociliates (activity and shape, microscope) (scuticociliates [1]; Dosage 900 ppm): Δ; Survival or Death of scuticociliates (activity and shape, microscope) (scuticociliates [2]; Dosage 10 ppm): Survival; Survival or Death of scuticociliates (activity and shape, microscope) (scuticociliates [2]; Dosage 50 ppm): Survival; Survival or Death of scuticociliates (activity and shape, microscope) (scuticociliates [2]; Dosage 100 ppm): Survival; Survival or Death of scuticociliates (activity and shape, microscope) (scuticociliates [2]; Dosage 200 ppm): Survival; Survival or Death of scuticociliates (activity and shape, microscope) (scuticociliates [2]; Dosage 300 ppm): Survival; Survival or Death of scuticociliates (activity and shape, microscope) (scuticociliates [2]; Dosage 400 ppm): Survival; Survival or Death of scuticociliates (activity and shape, microscope) (scuticociliates [2]; Dosage 600 ppm): Survival; Survival or Death of scuticociliates (activity and shape, microscope) (scuticociliates [2]; Dosage 700 ppm): Survival; Survival or Death of scuticociliates (activity and shape, microscope) (scuticociliates [2]; Dosage 800 ppm): Δ; Survival or Death of scuticociliates (activity and shape, microscope) (scuticociliates [2]; Dosage 900 ppm): Δ |
| CCCOc1ccc2nc(NC(=O)OC)[nH]c2c1 [Oxibendazole] | Survival | Survival | Δ | Δ | Death | Death | Death | Death | Survival | Survival | Δ | Δ | Δ | Δ | Death | Death |  |  |  |  |  |
